# Data taken from publication PMC8695410 (RSC Advances, 2021).
# Key:
# FXa = FXa (Homo sapiens, UniProt P00742); assay: In vitro chromogenic factor Xa inhibitory assay; format: biochemical
# thrombin = details: cited from earlier work; for IC50: thrombin inhibitors
# FXa, sequence (P00742 235-488 limits assumed): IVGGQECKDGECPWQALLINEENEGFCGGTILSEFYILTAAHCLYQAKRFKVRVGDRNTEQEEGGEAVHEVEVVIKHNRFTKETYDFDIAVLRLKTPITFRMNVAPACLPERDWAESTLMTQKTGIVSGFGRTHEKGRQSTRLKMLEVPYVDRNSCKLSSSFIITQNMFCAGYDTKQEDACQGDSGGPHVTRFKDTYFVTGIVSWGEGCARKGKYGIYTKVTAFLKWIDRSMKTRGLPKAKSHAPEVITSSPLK
# FXa, sequence (P00742 41-179 partner limits assumed): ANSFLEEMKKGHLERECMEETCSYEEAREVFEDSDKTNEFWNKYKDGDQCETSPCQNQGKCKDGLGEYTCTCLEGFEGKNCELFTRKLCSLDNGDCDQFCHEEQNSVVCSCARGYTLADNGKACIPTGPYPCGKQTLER
FXa inhibitory activity (in words) (FXa),IC50 (FXa),Compound,IC50 (thrombin),thrombin inhibitory effects (in words) (thrombin)
Moderate activity,67.1 ± 1.75 µM,"O=c1cc(-c2ccc(O)cc2)oc2cc(O)ccc12 [Compound 1, 7,4′-dihydroxyflavone]",,
,17.7 ± 0.28 µM,"COc1ccc(-c2coc3cc(O)ccc3c2=O)cc1 [Compound 2, 7-hydroxy-4′-methoxyisoflavone]",,
Moderate activity,35.3 ± 1.03 µM,"CC1(C)C=Cc2c(ccc3c2OC[C@@H](c2ccc(O)cc2O)C3)O1 [Compound 3, 3-R-glabridin]",,
Moderate activity,74.4 ± 1.29 µM,"O=C(/C=C/c1ccc(O)cc1)c1ccc(O)cc1O [Compound 4, isoliquiritigenin]",17.9 µM,
,5.15 ± 0.09 µM,"O=C1C[C@@H](c2ccc(O[C@@H]3O[C@H](CO)[C@@H](O)[C@H](O)[C@H]3O)cc2)Oc2cc(O)ccc21 [Compound 5, liquiritin]",,negligible
,10.4 ± 0.52 µM,"COc1c(/C=C/C(=O)c2ccc(O)c(O)c2)ccc(O)c1O [Compound 7, 3,3′,4,4′-tetrahydroxy-2-methoxychalcone]",,
very weak effects,,isoliquiritigenin-4-O-β-D-apiosylglucoside [Compound 10],37.9 µM,
very weak effects,,liquiritigenin-4′-O-β-D-apiosyl(1-2)-β-D-glucoside [Compound 8],,
